Results on three molecules are retold here after patent US20250099531A1, “SYNERGISTIC COMPOSITIONS FOR ENHANCING TFEB-MEDIATED INTRACELLULAR CLEARANCE” (CELAGENEX RESEARCH (INDIA) PVT. LTD., priority 2022, published 2025).

Like-named read-outs stand apart in the source and are kept apart here.

Data set [1] deals with Human Monocytes (THP-1) cell line. Kind of data set: Estimation of autophagy using flow cytometer by CYTO-ID Autophagy Detection Kit. The following applies: THP-1 cells in autophagy, 24 h treatment, amounts as in the group description. The data set is classed as cell-based. The procedure:
[table] […] To each well of the 6 well plates, 2 mL of the diluted cell suspension was added. After 24 h, 1 mL of different test concentrations and combinations of test substances were added. […] THP-1 cells were incubated with Rapamycin, and test substances in a 6-well plate. Followed by incubation, cells from different groups were harvested and measured using CYTO-ID autophagy detection kit by flow cytometer. All the reagents, standard solutions and samples will be thawed to room temperature before use. The assay was carried out as per manufacturer's instructions.

The test system is the same in data set [2]. The conditions noted are these: 24 h. On the procedure: The in vitro cytotoxicity was performed on Human Monocytes (THP-1) cell line to find the non-toxic concentrations of the test substances by WST-1 assay and evaluate their autophagic activity in Human Monocytes by CYTO-ID® Autophagy Detection Kit
About 10 mg of the test substances, N-(3-Aminopropyl)-1,4-butanediamine and N-α-Acetyl-N-β-alanyl-L-histidine were dissolved separately with 1 mL RPMI-1640 supplemented with 2% inactivated FBS to obtain a stock solution of 10 mg/mL concentration. Diluted the stock to desired concentrations for carrying out further studies.
THP-1 (Human Monocyte cells) was procured from NCCS, India. Stock cells were cultured in RPMI-1640 supplemented with 10% inactivated Fetal Bovine Serum (FBS), penicillin (100 IU/mL), streptomycin (100 μg/mL) and amphotericin B (5 μg/mL) in an humidified atmosphere of 5% CO2 at 37° C. until confluent. The stock cultures were grown in 25 cm^2 culture flasks and all experiments were carried out in 96 microtitre plates and 6 well plate (Tarsons India Pvt. Ltd., Kolkata, India).
The cell count was adjusted to 100,000 cells/mL using RPMI-1640 containing 10% FBS. To each well of the 96 well micro titre plate, 0.1 mL of the diluted cell suspension was added. After 24 h, 0.1 mL of different test concentrations were added in the micro titre plate. The untreated cells were maintained as cell control for comparison. The plate was then incubated at 37° C. for 24 h in 5% CO2 atmosphere, and microscopic examination was carried out and observations were noted. After 24 h, 20 μL of WST-1 added to each well and incubated for 3 h at 37° C. in 5% CO2 atmosphere. The plates were gently shaken and the absorbance was measured using a micro plate reader at a wavelength of 490 nm.

As for `CO[C@H]1C[C@@H]2CC[C@@H](C)[C@@](O)(O2)C(=O)C(=O)N2CCCC[C@H]2C(=O)O[C@H]([C@H](C)C[C@@H]2CC[C@@H](O)[C@H](OC)C2)CC(=O)[C@H](C)/C=C(\C)[C@@H](O)[C@@H](OC)C(=O)[C@H](C)C[C@H](C)/C=C/C=C/C=C/1C` [Rapamycin, reference compound], the “Percentage cells expressed CYTO-ID” value in data set [1] is 18.85%.
On to `NCCCCNCCCN` [N-(3-Aminopropyl)-1,4-butanediamine], for which, in data set [1], the “Percentage cells expressed CYTO-ID” value was 7.24%. The “Percentage cytotoxicity after treatment” value in data set [2] (0.01 mg/mL) came to 0.74 ± 0.25%; in data set [2] (0.03 mg/mL) it was 0.68 ± 2.30%; in data set [2] (0.06 mg/mL), 0.94 ± 0.18%; in data set [2] (0.07 mg/mL) it was 0.86 ± 2.08%; in data set [2] (0.12 mg/mL) it was 1.20 ± 0.87%; in data set [2] (0.25 mg/mL), 4.10 ± 1.63%. Also, the results for the “Percentage cytotoxicity after treatment” value in data set [2] (0.5 mg/mL), in data set [2] (1 mg/mL) and in data set [2] (5 mg/mL) were 11.79 ± 3.36%, 22.88 ± 2.80% and 39.37 ± 1.37%, respectively.
As to `CC(=O)NCCC(=O)N[C@@H](Cc1c[nH]cn1)C(=O)O` [N-α-Acetyl-N-β-alanyl-L-histidine], in data set [1], the “Percentage cells expressed CYTO-ID” value is on record as 4.03%.
